Measurements from ChEMBL document CHEMBL1125817, “Synthesis and evaluation of a series of 3,5-disubstituted benzisoxazole-4,7-diones. Potent radiosensitizers in vitro” (1991).

What was measured:
[1] = organism: Cricetulus griseus; assay: Concentration of the highest non-toxic dose tested; c = Compound was too insoluble to test; format: functional
[2] = organism: Cricetulus griseus; assay: Sensitizer enhancement ratio was determined from the ratio of the doses required to reduce cell survival to 25% of the control value obtained from hypoxic survival curves in the presence and absence of test compound; c = Compound was too insoluble to test; format: functional
[3] = organism: Cricetulus griseus; assay: Concentration of the highest non-toxic dose tested; format: functional
[4] = Sensitizer enhancement ratio was determined from the ratio of the doses required to reduce cell survival to 25% of the control value obtained from hypoxic survival curves in the presence and absence of test compound; format: functional, Cricetulus griseus

Compound | Concentration [1] | Ratio [2] | Concentration [3] [mM] | Ratio [4]
CCOc1onc2c1C(=O)/C(=N\c1ccc(C(F)(F)F)cc1)C=C2O | Too insoluble | Too insoluble |  | 
CN(C)CCCNc1onc2c1C(=O)/C(=N\c1ccc(Cl)cc1)C=C2O |  |  | 0.13 | 1.7
CCN(CC)c1onc2c1C(=O)/C(=N\c1ccccc1)C=C2O | Too insoluble | Too insoluble |  | 
CN(C)CCCN(C)c1onc2c1C(=O)/C(=N\c1ccccc1)C=C2O |  |  | 0.38 | 1.5
CCOc1onc2c1C(=O)/C(=N\c1ccccc1)C=C2O |  |  | 0.03 | 1.3
CN(C)CCN(C)c1onc2c1C(=O)/C(=N\c1ccccc1)C=C2O |  |  | 0.38 | 2
CN(C)CCCNc1onc2c1C(=O)/C(=N\c1ccccc1)C=C2O |  |  | 0.19 | 1.7
CN(C)CCNc1onc2c1C(=O)/C(=N\c1ccccc1)C=C2O |  |  | 0.19 | 1.5
O=C1C=C(Nc2ccc(C(F)(F)F)cc2)C(=O)c2c1noc2NCCN1CCCCC1 |  |  | 0.13 | 1.6
CCOc1onc2c1C(=O)/C(=N\c1ccc(Cl)cc1)C=C2O | Too insoluble | Too insoluble |  | 
Cc1onc2c1C(=O)/C(=N\c1ccccc1)C=C2O | Too insoluble | Too insoluble |  | 
CCOc1onc2c1C(=O)/C(=N\c1ccc(C)cc1)C=C2O | Too insoluble | Too insoluble |  | 
O=C1C=C(Nc2ccc(Cl)cc2)C(=O)c2c1noc2NCCN1CCCCC1 |  |  | 0.19 | 1.9
CCOc1onc2c1C(=O)/C(=N\c1ccc(F)cc1)C=C2O | Too insoluble | Too insoluble |  | 
O=C1/C(=N\c2ccccc2)C=C(O)c2noc(N(CCO)CCO)c21 |  |  | 1.5 | 2.1
O=C1C=C(Nc2ccccc2)C(=O)c2c1noc2-c1ccccc1 | Too insoluble | Too insoluble |  | 
CN(C)CCCNc1onc2c1C(=O)/C(=N\c1ccc(F)cc1)C=C2O |  |  | 0.38 | 1.4
Cc1ccc(/N=C2/C=C(O)c3noc(NCCN(C)C)c3C2=O)cc1 |  |  | 0.05 | 1.2
O=C1C=C(Nc2ccc(F)cc2)C(=O)c2c1noc2NCCN1CCCCC1 |  |  | 0.29 | 1.6
O=C1C=C(Nc2ccccc2)C(=O)c2c1noc2NCCN1CCCCC1 |  |  | 0.38 | 2.4
CCNc1onc2c1C(=O)/C(=N\c1ccccc1)C=C2O | Too insoluble | Too insoluble |  | 
CN(C)CCCNc1onc2c1C(=O)/C(=N\c1ccc(C(F)(F)F)cc1)C=C2O |  |  | 0.09 | 1.3
